Reference: US11370763B2, “Compounds and compositions for treating conditions associated with NLRP activity” (Novartis AG, priority 2017, dated 2022)

Each compound was assayed on IL-1β production in PMA-differentiated THP-1 cells (assay: IL-1β production in PMA-differentiated THP-1 cells stimulated with gramicidin (hTHP-1 assay containing 2% fetal bovine serum; Procedures 1-3)). Conditions: Homo sapiens, THP-1, hTHP-1 assay containing 2% fetal bovine serum; class symbols; read-out: hTHP-1 IC50 (Average IC50 of compounds in hTHP-1 assay).
Format: cell-based, human
In short: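 THP-1 cells differentiated with PMA (20 ng/ml, 16-18 h), replated in 2% FBS RPMI (50,000 cells/well), preincubated 1 h with compound (top final 100 μM, 3-fold steps, 0.37% DMSO), then stimulated 2 h with gramicidin (5 μM). Supernatant IL-1β measured by HTRF.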
CC(C)c1cc(C2(F)COC2)cc(C(C)C)c1CC(=O)N=S(N)(=O)c1ncc(C(C)(C)O)s1 (stereo not drawn) [Example 94, N-(amino(5-(2-hydroxypropan-2-yl)thiazol-2-yl)(oxo)-λ^6-sulfaneylidene)-2-(4-(3-fluorooxetan-3-yl)-2,6-diisopropylphenyl)acetamide] gave an IC50 of 1000 to 5000 nM.
For CC(C)c1c(F)c(C#N)cc(C2CC2)c1CC(=O)N=S(N)(=O)c1ccc(CN(C)C)cc1F (stereo not drawn) [Example 128, N-(amino(4-((dimethylamino)methyl)-2-fluorophenyl)(oxo)-λ^6-sulfaneylidene)-2-(4-cyano-6-cyclopropyl-3-fluoro-2-isopropylphenyl)acetamide], the IC50 was 200 to 1000 nM.
In the case of CC(C)c1cc(OC(F)F)cc(C(C)C)c1CC(=O)N=S(N)(=O)c1ccc(CN(C)C)cc1 (stereo not drawn) [Example 27, 2-(4-(difluoromethoxy)-2,6-diisopropylphenyl)-N-(4-((dimethylamino)methyl)phenyl-sulfonimidoyl)acetamide], the IC50 is reported as 1000 to 5000 nM.
CC(C)c1ncc(F)c(C(C)C)c1CC(=O)N=S(N)(=O)c1ncc(C(C)(C)O)s1 (stereo not drawn) [Example 144, N-(amino(5-(2-hydroxypropan-2-yl)thiazol-2-yl)(oxo)-λ^6-sulfaneylidene)-2-(5-fluoro-2,4-diisopropylpyridin-3-yl)acetamide] gave an IC50 of 5000 to 30000 nM.
For CC(C)c1ncc(F)c(C(C)C)c1CC(=O)N=S(N)(=O)c1ccn(C(C)C)n1 (stereo not drawn) [Example 148, N-(amino(1-isopropyl-1H-pyrazol-3-yl)(oxo)-λ^6-sulfaneylidene)-2-(5-fluoro-2,4-diisopropylpyridin-3-yl)acetamide], the IC50 was 5000 to 30000 nM.
COc1ccc2cc(-c3cc(C(C)C)c(CC(=O)N=S(N)(=O)c4ncc(C(C)(C)O)s4)c(C(C)C)c3)ccc2c1 (stereo not drawn) [Example 126, N-(amino(5-(2-hydroxypropan-2-yl)thiazol-2-yl)(oxo)-λ^6-sulfaneylidene)-2-(2,6-diisopropyl-4-(6-methoxynaphthalen-2-yl)phenyl)acetamide] gave an IC50 of 200 to 1000 nM.
COc1cc(C(C)C)c(CC(=O)NS(=O)(=O)c2ncc(C(C)(C)O)s2)c(C(C)C)n1 [Example 143, 2-(2,4-diisopropyl-6-methoxypyridin-3-yl)-N-((5-(2-hydroxypropan-2-yl)thiazol-2-yl)sulfonyl)acetamide] was tested, and the IC50 was 1000 to 5000 nM.
In the case of CC(C)c1ncc(F)c(C(C)C)c1CC(=O)N=S(N)(=O)c1cc(C(C)(C)O)cs1 (stereo not drawn) [Example 145, N-(amino(4-(2-hydroxypropan-2-yl)thiophen-2-yl)(oxo)-λ^6-sulfaneylidene)-2-(5-fluoro-2,4-diisopropylpyridin-3-yl)acetamide], the IC50 is reported as 200 to 1000 nM.
Work on CC(C)c1cc(C#N)c(F)c(C(C)C)c1CC(=O)N=S(N)(=O)c1cnc(C(C)(C)O)s1 (stereo not drawn) [Example 123, N-(amino(2-(2-hydroxypropan-2-yl)thiazol-5-yl)(oxo)-λ^6-sulfaneylidene)-2-(4-cyano-3-fluoro-2,6-diisopropylphenyl)acetamide] yielded an IC50 of 200 to 1000 nM.
For COCc1cc(C(C)C)c(CC(=O)N=S(N)(=O)c2ncc(C(C)(C)O)s2)c(C(C)C)c1 (stereo not drawn) [Example 111, N-(amino(5-(2-hydroxypropan-2-yl)thiazol-2-yl)(oxo)-λ^6-sulfaneylidene)-2-(2,6-diisopropyl-4-(methoxymethyl)phenyl) acetamide], the IC50 was 40 to 200 nM.
CC(C)(O)c1ncc([S@](N)(=O)=NC(=O)Cn2c3ccccc3c3ccccc32)s1 [Compound 262b] gave an IC50 of 5000 to 30000 nM.
CC(C)c1cc(-c2ccc3c(c2)CCOC3)cc(C(C)C)c1CC(=O)N=S(=O)(NC(=O)OC(C)(C)C)c1cnc(C(C)(C)O)s1 (stereo not drawn) [Example 138, tert-butyl (2-(2-hydroxypropan-2-yl)-N-(2-(4-(isochroman-6-yl)-2,6-diisopropylphenyl)acetyl)thiazole-5-sulfonimidoyl)carbamate] showed an IC50 of 1000 to 5000 nM.
For CC(C)c1ccc(F)c(C(C)C)c1CC(=O)N=S(N)(=O)c1ccc(CN(C)C)cn1 (stereo not drawn) [Example 91, N-(amino(5-((dimethylamino)methyl)pyridin-2-yl)(oxo)-λ^6-sulfaneylidene)-2-(3-fluoro-2,6-diisopropylphenyl)acetamide], the IC50 was 5000 to 30000 nM.
In the case of CC(C)c1cc(-c2ccc(Cl)c(Cl)c2)cc(C(C)C)c1CC(=O)N=S(N)(=O)c1cnc(C(C)(C)O)s1 (stereo not drawn) [Example 112, N-(amino(2-(2-hydroxypropan-2-yl)thiazol-5-yl)(oxo)-λ^6-sulfaneylidene)-2-(3′,4′-dichloro-3,5-diisopropyl-[1,1′-biphenyl]-4-yl)acetamide], the IC50 is reported as 200 to 1000 nM.
With CC(C)c1ccc2c(c1CC(=O)N=S(N)(=O)c1cnc(C(C)(C)O)s1)CCC2 (stereo not drawn) [Example 135, N-(amino(2-(2-hydroxypropan-2-yl)thiazol-5-yl)(oxo)-λ^6-sulfaneylidene)-2-(5-isopropyl-2,3-dihydro-1H-inden-4-yl)acetamide] the IC50 was 1000 to 5000 nM.
CC(C)(O)c1cnc(S(N)(=O)=NC(=O)Cc2c3c(cc4c2CCC4)CCC3)s1 (stereo not drawn) [Example 4, 2-(1,2,3,5,6,7-Hexahydro-s-indacen-4-yl)-N-(5-(2-hydroxypropan-2-yl)thiazol-2-ylsulfonimidoyl)acetamide] was tested, and the IC50 was 5000 to 30000 nM.
Work on CC(C)c1ccc(C#N)c(C(C)C)c1CC(=O)N=S(N)(=O)c1nc(C(C)(C)O)cs1 (stereo not drawn) [Example 120, N-(amino(4-(2-hydroxypropan-2-yl)thiazol-2-yl)(oxo)-λ^6-sulfaneylidene)-2-(3-cyano-2,6-diisopropylphenyl)acetamide] yielded an IC50 of 200 to 1000 nM.
CC(C)c1ccc(F)c(C(C)C)c1CC(=O)N=S(N)(=O)c1ccc2c(cnn2C)c1 (stereo not drawn) [Example 90, N-(amino(1-methyl-1H-indazol-5-yl)(oxo)-λ^6-sulfaneylidene)-2-(3-fluoro-2,6-diisopropylphenyl)acetamide] showed an IC50 of 5000 to 30000 nM.
For CC(C)c1ccc(F)c(C(C)C)c1CC(=O)N=S(N)(=O)c1ncc(C(C)(C)O)s1 (stereo not drawn) [Example 130, N-(amino(5-(2-hydroxypropan-2-yl)thiazol-2-yl)(oxo)-λ^6-sulfaneylidene)-2-(3-fluoro-2,6-diisopropylphenyl)acetamide], the IC50 was 1000 to 5000 nM.

Same assay, conditions: Homo sapiens, THP-1, hTHP-1 assay containing 2% fetal bovine serum; given as numeric bound; read-out: hTHP-1 IC50 (Average IC50 of compounds in hTHP-1 assay)
For CC(C)c1cc(C2(O)COC2)cc(C(C)C)c1CC(=O)N=S(N)(=O)c1ncc(C(C)(C)O)s1 (stereo not drawn) [Example 93, N-(amino(5-(2-hydroxypropan-2-yl)thiazol-2-yl)(oxo)-λ^6-sulfaneylidene)-2-(4-(3-hydroxyoxetan-3-yl)-2,6-diisopropylphenyl)acetamide], the IC50 was over 30000 nM.
CCc1cc(C#N)cc(C(C)C)c1CC(=O)N=S(N)(=O)c1ccc(CN(C)C)cc1 (single isomer, unassigned) [Example 58, (S)- or (R)-2-(4-cyano-2-ethyl-6-isopropylphenyl)-N-(4-((dimethylamino)methyl)phenyl-sulfonimidoyl)acetamide] gave an IC50 of over 30000 nM.
Work on CC(C)c1cc(F)cc(C(C)C)c1C(C)C(=O)N=S(N)(=O)c1cnc(C(C)(C)O)s1 (stereo not drawn) [Example 96, N-(amino(2-(2-hydroxypropan-2-yl)thiazol-5-yl)(oxo)-λ^6-sulfaneylidene)-2-(4-fluoro-2,6-diisopropylphenyl)propanamide] yielded an IC50 of over 30000 nM.
CC(C)c1ncc(F)c(C(C)C)c1CC(=O)N=S(N)(=O)c1nc(C(C)(C)O)cs1 (single isomer, unassigned) [Example 207, (S) or (R)-N-(amino(4-(2-hydroxypropan-2-yl)thiazol-2-yl)(oxo)-λ^6-sulfaneylidene)-2-(5-fluoro-2,4-diisopropylpyridin-3-yl)acetamide] gave an IC50 of over 30000 nM.
CC(C)(O)c1ncc([S@@](N)(=O)=NC(=O)Cn2c3ccccc3c3ccccc32)s1 [Compound 262a] was tested, and the IC50 was over 30000 nM.
CC(C)c1cc(C#N)cc(C2CC2)c1CC(=O)N=S(N)(=O)c1ccc(CN(C)C)cc1 (single isomer, unassigned) [Example 74, (S)- or (R)-2-(4-cyano-2-cyclopropyl-6-isopropylphenyl)-N-(4-((dimethylamino)methyl)phenyl-sulfonimidoyl)acetamide] showed an IC50 of over 30000 nM.

Same assay, conditions: hTHP-1 assay containing 2% fetal bovine serum; class symbols; read-out: hTHP-1 IC50 (Average IC50 of compounds in hTHP-1 assay)
Work on CC(C)c1cc(-c2ccc3c(c2)OC(F)(F)O3)cc(C(C)C)c1CC(=O)N=S(N)(=O)c1ncc(C(C)(C)O)s1 (single isomer, unassigned) [Example 166, (R) or (S)-N-(amino(5-(2-hydroxypropan-2-yl)thiazol-2-yl)(oxo)-λ^6-sulfaneylidene)-2-(4-(2,2-difuorobenzo[d][1,3]dioxol-5-yl)-2,6-diisopropylphenyl)acetamide] yielded an IC50 of 40 to 200 nM.
Work on CC(C)c1ccc(F)c(C(C)C)c1CC(=O)N=S(N)(=O)c1ccc(C(C)(C)O)s1 (single isomer, unassigned) [Example 176, (R) or (S)-N-(amino(5-(2-hydroxypropan-2-yl)thiophen-2-yl)(oxo)-λ^6-sulfaneylidene)-2-(3-fluoro-2,6-diisopropylphenyl)acetamide] yielded an IC50 of 200 to 1000 nM.
CC(C)c1cc(-c2ccc3c(c2)COCC3)cc(C(C)C)c1CC(=O)N=S(N)(=O)c1cnc(C(C)(C)O)s1 (single isomer, unassigned) [Example 171, (R) or (S)-N-(amino(2-(2-hydroxypropan-2-yl)thiazol-5-yl)(oxo)-λ^6-sulfaneylidene)-2-(4-(isochroman-7-yl)-2,6-diisopropylphenyl)acetamide] was tested, and the IC50 was 200 to 1000 nM.
COCc1cc(C(C)C)c(CC(=O)N=S(N)(=O)c2ncc(C(C)(C)O)s2)c(C(C)C)c1 (single isomer, unassigned) [Example 185, (R) or (S)-N-(amino(5-(2-hydroxypropan-2-yl)thiazol-2-yl)(oxo)-λ^6-sulfaneylidene)-2-(2,6-diisopropyl-4-(methoxymethyl)phenyl) acetamide] was tested, and the IC50 was 40 to 200 nM.
With CC(C)c1nc(-c2cccc(C(F)(F)F)c2)c(F)c(C(C)C)c1CC(=O)N=S(N)(=O)c1cnc(C(C)(C)O)s1 (single isomer, unassigned) [Example 202, N-(amino(2-(2-hydroxypropan-2-yl)thiazol-5-yl)(oxo)-λ^6-sulfaneylidene)-2-(5-fluoro-2,4-diisopropyl-6-(3-(trifluoromethyl)phenyl)pyridin-3-yl)acetamide] the IC50 was 200 to 1000 nM.
